Format in all cases: cell-based, human
For test [1], the system named is p53 reporter (PG13-luc) in SW480 cells. The test is described as follows: luciferase-based p53-reporter activity assay. The method, then: High-throughput screening was performed using a non-invasive bioluminescence imaging in human colorectal cancer cell lines that stably express a p53-regulated luciferase reporter. Cells were seeded in 96-well plates (Greiner Bio-One) at a density of 1×10^4 cells per well. p53 transcriptional activity was imaged using an IVIS imaging system for a period of 3-4 hours.
Cell-based screening of p53 transcriptional activity for small molecule CB002 was accomplished using noninvasive bioluminescence imaging in human colorectal cancer cell lines SW480, DLD-1, DLD-1 p73^−/−, HCT116, and HCT116 p53^−/−. These cell lines stably express a p53 reporter, PG13-luc. Cells were seeded in opaque 96-well culture at a density of 5×10^4 cells/well. The cells were treated with CB002 at ranging doses with DMSO controls. Bioluminescence in cells was imaged for p53 transcriptional activity at 2 hours and 24 hours using IVIS imaging system (Xenogen).
In order to identify small molecules that could restore the p53 signaling pathway, 50,000 small molecules from the Chembridge Library were screened using a firefly luciferase human p53 reporter assay system. SW480 colorectal cancer cells that stably express the human p53 reporter were treated with compounds at various concentrations from 0-100 μM for 2 and 24 hours. […] To further validate the effects of CB002, the screening was expanded by testing effects on p53-dependent reporter activity in DLD-1, wild-type HCT116, and p53-null colorectal cancer HCT116 cell lines. […] Referring to FIG. 1, representative images of luciferase-based p53-reporter activity assays are shown at 3 hours (Panel A). Quantification of the luciferase-based p53-reporter activity assays in three different cell lines incubated from 3-24 hours with CB002 are shown (Panels B-D). p53-reporter activity assays are shown at 2 hours for HCT116 p53-null cells (Panel E).

For test [2], the system named is p53 pathway proteins in DLD-1 cells. Kind of test: Western blot of p53 targets and LC3B. To be noted: for DR5 protein level: 8 and 24 hours. On the procedure:
(§1) After treatment, cells were harvested by trypsinization, washed with PBS, and lysed with RIPA buffer (Sigma-Aldrich) for 30 minutes to 1 hour at 4° C. Protein lysates were spun down and supernatant was collected. Protein quantification was performed using a Pierce™ BCA Protein Assay Kit (Thermo Fisher Scientific). 1×NuPAGE® LDS sample buffer (Thermo Fisher Scientific) and 2-Mercaptoethanol as the reducing agent (Sigma-Aldrich) were added to protein lysates, followed by boiling for 15 minutes at 95° C. Equal total protein amounts samples were loaded into NuPAGE™ Novex™ 4-12% Bis-Tris Protein Gels (1.5 mm, Thermo Fisher Scientific) and gel eletrophoresis was performed with NuPAGE™ MES SDS Running Buffer. Proteins were transferred onto an Immobilon-P membrane (PVDF, EMD Millipore) using a Bio-Rad system with a 10% Tris-Glycine and 10% methanol transfer buffer diluted in distilled and deionized water. After transfer, membranes were blocked with 10% milk in TBST solution and then incubated overnight with primary antibody, washed with TBST and incubated with secondary antibody for 1 hour. Incubations were performed in 5% milk in TBST solution. Signal was detected by using a chemiluminescent detection kit, followed by autoradiography. The following antibodies were used: p53 (DO-1, 1:1000, Santa Cruz), p73 (1:1000, Bethyl Laboratories), p21 and NOXA (1:250, EMD Millipore), DR5, FADD, cleaved caspase 3, cleaved caspase 8, cleaved PARP, and LC3B (1:1000, Cell Signaling), and β-actin (1:10000, Sigma).
(§2) Proteins were isolated using NP40 Lysis Buffer (20 mmol/L Tris-HCl (pH 7.4), 150 mmol/L NaCl, 5 mmol/L EDTA, 50 mmol/L NaF, 1 mmol/L glycerophosphate, 5 mmol/L Na4P2O7, 0.5% NP40, and complete protease inhibitor cocktail (Roche)) and electrophoresed through 4-12% SDS-PAGE followed by semi-dry transfer to PVDF membranes. The PVDF membranes were incubated with different antibodies including p21 (OP64-100UG, EMD Millipore (world wide web at emdmillipore.com/US/en/product/Antip21WAF1-(Ab-1)-Mouse-mAb-(EA10), EMD_BIO-OP64)), PUMA (12450S, Cell Signaling Technology, world wide web at cellsignal.com/products/primary-antibodies/puma-d30c10-rabbit-mab/12450), DR5 (3696S, Cell Signaling Technology, world wide web at cellsignal.com/products/primary-antibodies/dr5-antibody/3696?N=4294956287&Ntt=3696s&fromPage=plp& requestid=541668), p53(sc-126, Santa Cruz, world wide web at scbt.com/scbt/fr/product/p53-antibody-do-1), and RAN (610341, BD Transduction Laboratories, world wide web at bdbiosciences.com/us/reagents/research/antibodies-buffers/cell-biologyreagents/cell-biology-antibodies/purified-mouse-anti-ran-20ran/p/610341) in blocking buffer at 4° C. overnight. Bound antibody will be detected using IRDye secondary antibodies (LI-COR Biosciences,) in Odyssey blocking buffer for 1 hour then imaged using the ODYSSEY infrared imaging system.
Background: In western blotting, separated proteins are transferred to a membrane and probed.

For test [3], the system named is p53 pathway proteins in p73 knockdown DLD-1 cells. Kind of test: Western blot of p53 targets. The note with it: for p21 expression: 8 and 24 hours. On the procedure: as §1, §2
Test [4] deals with WI38 normal cells. The test is described as follows: apoptosis assay, sub-G1 analysis (propidium iodide, flow cytometry). The method, then: Apoptotic cells were quantified by sub-G1 analysis. Cells were seeded at a density of 2.5×10^5 to 5×10^5 in a 6-well plate and treated for 48-72 hours. After treatment, adherent cells were trypsinized and collected along with floating cells, washed with PBS and fixed in 70% ethanol. Cells were then incubated in a Phosphate-citric acid buffer (0.2 M Na2HPO4+0.1 M Citric Acid, pH 7.8) at room temperature for 5 minutes, spun down and resuspended for staining with 50 μg/mL propidium iodide (PI) in the presence of 250 μg/mL pancreatic ribonuclease (RNase A). Sub-G1 analyses were performed using an Epics Elite Epics flow cytometer (Coulter-Beckman).
Cells were seeded out at 1×10^6 cells/well on six well plates and treated with CB002 and Analog 11 at ranging doses with DMSO controls. Cells were harvested after 72 hours of treatment, all cells including floating cells were fixed with ethanol and stained with Propidium Iodide and then analyzed using Epics Elite flow cytometer to measure the DNA content of the stained cells.

Setting [5] is: 8 hours, 25 μmol/L and 50 μmol/L.
[6] abbreviates: 24 hours, 12 μmol/L of CB002 and 25 μmol/L of Analog 11.

Structures are written as SMILES.

Turning to `Cn1c(=O)c2c(nc(Nc3ccccc3)n2C)n(C)c1=O` [Analog 11, 8-anilino-1,3,7-trimethyl-3,7-dihydro-1Hpurine-2,6-dione], in test [1] (0 to 20 μmol/L), the p53 responsive bioluminescence result was “increased p53 responsive bioluminescence in a dose dependent manner”. In addition, the DR5 protein level result in test [2] is “no change of DR5”. Moreover, the PUMA protein level entry in test [2] (setting [5]) is “an increase at the 25 μmol/L but not the 50 μmol/L”; in test [2] (24 hours), “an increase in PUMA”. Besides, the p21 protein level entry in test [2] (setting [5]) is recorded as “minor increase in p21”; in test [2] (setting [6]), “moderate increase in p21”. Moreover, the p21 expression result in test [3] was “absent”. Besides, the PUMA expression result in test [3] (8 hours, over control) is given as “increased expression”; in test [3] (24 hours), “reduction in PUMA”.
On to `Cn1c(=O)c2[nH]c(Nc3ccccc3)nc2n(C)c1=O` [CB002, 8-anilino-1,3-dimethyl-3,7-dihydro-1H-purine-2,6-dione], for which the “p53 luciferase reporter activity” value in test [1] (0-100 μM, 2 and 24 hours) was “activating the luciferase reporter in a dose-dependent manner”. For the same molecule, the “LC3B protein expression time course” value in test [2] (160 μM, 0-48 hours) is listed as “initial increase of LC3B”. Also, in test [2], the DR5 protein level entry is “slightly increased”. Also, the figures for the PUMA protein level result in test [2] (setting [5]) and in test [2] (24 hours) were “minor increase in PUMA” and “an increase in PUMA”, respectively. Also, the p21 protein level result in test [2] (setting [5]) is on record as “minor increase in p21”; in test [2] (setting [6]), “moderate increase in p21”. In test [4] (96 μM, 48 hours, DMSO control 7.6%), this molecule gave a sub-G1 population of 9.8%. The sub-G1 fraction result in test [4] (200 μM, 72 hours) was “relatively unchanged”. In test [3], the p21 expression result is “absent”. Moreover, the PUMA expression result in test [3] (8 hours, over control) is recorded as “increased expression”; in test [3] (24 hours), “largely unchanged from control”.
